15 compounds from patent US20250235543A1, “MODIFIED PROTEINS AND PROTEIN DEGRADERS” (Cullgen (Shanghai), Inc., priority 2021, published 2025) can be followed below.

One assay has as its system cyclin D1. Description: Cyclin D1 percentage degradation in Calu-1 cells (immunoblotting). The format is cell-based. Conditions: 200 nM, 16 hours. The method in brief:
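Cyclin D1 degradation was assessed by western blot. Clarified lysates, obtained by RIPA lysis with inhibitors and centrifugation at 13,000 rpm, were normalized by BCA protein assay and separated by SDS-PAGE. Bands were detected with Western ECL Substrate on a Bio-Rad ChemiDoc MP Imaging system and quantified in Image Lab software to derive percentage degradation.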
In general terms: Immunoblotting shows a protein as a band on a membrane.

Another assay has as its target T1, CDK4 (Homo sapiens, UniProt P11802).
T1 construct: endogenous in cells; host or cells: Calu-1
Description: CDK4 percentage degradation in Calu-1 cells (immunoblotting). The format is cell-based. As to conditions: read-out: CDK4 Degradation (200 nM). The method in brief:
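CDK4 degradation was measured by immunoblotting. Cells were washed in cold PBS and lysed in RIPA buffer with inhibitors for 30 min at 4° C., then spun at 13,000 rpm to clear. After BCA protein determination, lysates were heated at 99° C. for 5 min in Laemmli buffer, resolved on SDS-PAGE, imaged on a ChemiDoc MP with ECL substrate, and band intensities quantified.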

Read-outs that look alike come from different tables or passages of the source.

T1 sequence (P11802 2-303 limits assumed): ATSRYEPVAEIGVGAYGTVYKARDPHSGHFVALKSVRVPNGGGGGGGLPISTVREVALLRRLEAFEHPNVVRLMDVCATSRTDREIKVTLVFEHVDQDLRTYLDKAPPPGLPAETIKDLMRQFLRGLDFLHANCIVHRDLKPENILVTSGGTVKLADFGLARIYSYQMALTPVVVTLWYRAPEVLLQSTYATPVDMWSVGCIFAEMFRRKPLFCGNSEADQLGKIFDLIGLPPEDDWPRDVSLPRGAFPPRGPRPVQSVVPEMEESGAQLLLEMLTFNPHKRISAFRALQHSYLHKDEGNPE
T1 sequence (P24385 whole entry partner): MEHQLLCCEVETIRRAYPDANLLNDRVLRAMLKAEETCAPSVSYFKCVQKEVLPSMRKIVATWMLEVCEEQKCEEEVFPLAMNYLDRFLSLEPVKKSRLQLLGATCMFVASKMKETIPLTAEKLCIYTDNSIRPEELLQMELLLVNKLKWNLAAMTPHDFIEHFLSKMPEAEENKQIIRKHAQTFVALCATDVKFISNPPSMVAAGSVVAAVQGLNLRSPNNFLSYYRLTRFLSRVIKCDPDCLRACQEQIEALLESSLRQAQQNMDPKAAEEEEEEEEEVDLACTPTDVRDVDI
T1 sequence (Q16531 2-1140 limits assumed, further chain): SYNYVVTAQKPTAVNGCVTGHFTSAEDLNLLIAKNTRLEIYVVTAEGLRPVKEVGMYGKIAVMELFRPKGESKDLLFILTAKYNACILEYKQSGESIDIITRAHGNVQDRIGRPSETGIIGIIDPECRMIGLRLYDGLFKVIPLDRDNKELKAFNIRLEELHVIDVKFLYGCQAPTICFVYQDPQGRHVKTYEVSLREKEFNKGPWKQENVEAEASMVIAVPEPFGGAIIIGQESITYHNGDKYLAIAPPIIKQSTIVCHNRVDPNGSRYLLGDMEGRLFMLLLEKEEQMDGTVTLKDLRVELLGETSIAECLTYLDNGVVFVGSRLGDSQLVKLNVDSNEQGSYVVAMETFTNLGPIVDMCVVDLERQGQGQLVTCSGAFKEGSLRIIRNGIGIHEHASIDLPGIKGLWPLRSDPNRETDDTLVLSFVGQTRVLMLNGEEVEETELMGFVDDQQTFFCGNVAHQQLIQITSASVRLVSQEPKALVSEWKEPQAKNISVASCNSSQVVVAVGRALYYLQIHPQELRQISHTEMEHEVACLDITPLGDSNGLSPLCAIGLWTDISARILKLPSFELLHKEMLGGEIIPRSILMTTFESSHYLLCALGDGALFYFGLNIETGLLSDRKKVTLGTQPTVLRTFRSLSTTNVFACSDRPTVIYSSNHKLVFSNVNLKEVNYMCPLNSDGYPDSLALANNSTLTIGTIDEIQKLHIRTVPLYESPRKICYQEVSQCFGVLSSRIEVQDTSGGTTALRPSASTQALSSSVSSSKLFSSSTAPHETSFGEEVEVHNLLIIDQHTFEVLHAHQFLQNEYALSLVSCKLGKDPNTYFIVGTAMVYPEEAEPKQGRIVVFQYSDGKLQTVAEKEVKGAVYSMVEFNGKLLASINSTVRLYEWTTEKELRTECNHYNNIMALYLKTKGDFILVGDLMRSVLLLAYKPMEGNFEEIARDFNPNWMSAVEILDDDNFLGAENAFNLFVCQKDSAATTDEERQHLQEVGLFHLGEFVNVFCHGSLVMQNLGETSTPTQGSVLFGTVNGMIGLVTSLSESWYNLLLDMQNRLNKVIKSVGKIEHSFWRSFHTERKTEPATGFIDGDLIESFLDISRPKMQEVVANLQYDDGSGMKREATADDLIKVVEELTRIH

For `CC(=O)c1c(C)c2cnc(Nc3ccc(N4CCN(CC(=O)NCCCCCCCC(=O)Nc5ccccc5C(=O)Nc5nc(C)c(C)s5)CC4)cn3)nc2n(C2CCCC2)c1=O` [CPD-136, 2-(8-(2-(4-(6-((6-Acetyl-8-cyclopentyl-5-methyl-7-oxo-7,8-dihydropyrido[2,3-d]pyrimidin-2-yl)amino)pyridin-3-yl)piperazin-1-yl)acetamido)octanamido)-N-(4,5-dimethylthiazol-2-yl)benzamide], in the assay on cyclin D1, the “CyclinD1 Degradation (200 nM)” value is reported as “A (protein percentage degradation >=80%)”. Further, the inhibition at 0.2 µM at CDK4 (Calu-1 cells, 200 nM, 16 hours) is 50 to 80%.

Take `CC(=O)c1c(C)c2cnc(Nc3ccc(N4CCN(C(=O)CCCCCNc5cccc(C(=O)Nc6nc(C)c(C)s6)c5C)CC4)cn3)nc2n(C2CCCC2)c1=O` [CPD-137, 3-((6-(4-(6-((6-Acetyl-8-cyclopentyl-5-methyl-7-oxo-7,8-dihydropyrido[2,3-d]pyrimidin-2-yl)amino)pyridin-3-yl)piperazin-1-yl)-6-oxohexyl)amino)-N-(4,5-dimethylthiazol-2-yl)-2-methylbenzamide]: the “CyclinD1 Degradation (200 nM)” value in the assay with cyclin D1 is recorded as “D (protein percentage degradation <30%)”. Moreover, the inhibition at 0.2 µM on CDK4 (Calu-1, 16 h) is less than 30%.

With `CC(=O)c1c(C)c2cnc(Nc3ccc(N4CCN(C(=O)CCCCCCNc5cccc(C(=O)Nc6nc(C)c(C)s6)c5C)CC4)cn3)nc2n(C2CCCC2)c1=O` [CPD-138, 3-((7-(4-(6-((6-Acetyl-8-cyclopentyl-5-methyl-7-oxo-7,8-dihydropyrido[2,3-d]pyrimidin-2-yl)amino)pyridin-3-yl)piperazin-1-yl)-7-oxoheptyl)amino)-N-(4,5-dimethylthiazol-2-yl)-2-methylbenzamide], the “CyclinD1 Degradation (200 nM)” value in the assay on cyclin D1 is given as “D (protein percentage degradation <30%)”. Also, the inhibition at 0.2 µM on CDK4 (Calu-1 cells, 200 nM, 16 hours) is less than 30%.

As for `CC(=O)c1c(C)c2cnc(Nc3ccc(N4CCN(CC(=O)NCCOCCOCCC(=O)Nc5cccc(C)c5C(=O)Nc5nc(C)c(C)s5)CC4)cn3)nc2n(C2CCCC2)c1=O` [CPD-139, 2-(3-(2-(2-(2-(4-(6-((6-Acetyl-8-cyclopentyl-5-methyl-7-oxo-7,8-dihydropyrido[2,3-d]pyrimidin-2-yl)amino)pyridin-3-yl)piperazin-1-yl)acetamido)ethoxy)ethoxy)propanamido)-N-(4,5-dimethylthiazol-2-yl)-6-methylbenzamide], in the assay with cyclin D1, the “CyclinD1 Degradation (200 nM)” value was “D (protein percentage degradation <30%)”. At CDK4 (Calu-1 cells, 200 nM, 16 hours), the inhibition at 0.2 µM was less than 30%.

With `CC(=O)c1c(C)c2cnc(Nc3ccc(N4CCN(CC(=O)NCCOCCOCCC(=O)Nc5cc(Cl)ccc5C(=O)Nc5nc(C)c(C)s5)CC4)cn3)nc2n(C2CCCC2)c1=O` [CPD-140, 2-(3-(2-(2-(2-(4-(6-((6-Acetyl-8-cyclopentyl-5-methyl-7-oxo-7,8-dihydropyrido[2,3-d]pyrimidin-2-yl)amino)pyridin-3-yl)piperazin-1-yl)acetamido)ethoxy)ethoxy)propanamido)-4-chloro-N-(4,5-dimethylthiazol-2-yl)benzamide], in the assay on cyclin D1, the “CyclinD1 Degradation (200 nM)” value is “A (protein percentage degradation >=80%)”. The inhibition at 0.2 µM at CDK4 (Calu-1 cells, 200 nM, 16 hours) fell in the range of 50 to 80%.

On to `CC(=O)c1c(C)c2cnc(Nc3ccc(N4CCN(CC(=O)NCCOCCOCCC(=O)Nc5ccc(C)cc5C(=O)Nc5nc(C)c(C)s5)CC4)cn3)nc2n(C2CCCC2)c1=O` [CPD-141, 2-(3-(2-(2-(2-(4-(6-((6-Acetyl-8-cyclopentyl-5-methyl-7-oxo-7,8-dihydropyrido[2,3-d]pyrimidin-2-yl)amino)pyridin-3-yl)piperazin-1-yl)acetamido)ethoxy)ethoxy)propanamido)-N-(4,5-dimethylthiazol-2-yl)-5-methylbenzamide], for which, in the assay on cyclin D1, the “CyclinD1 Degradation (200 nM)” value is “A (protein percentage degradation >=80%)”. At CDK4 (Calu-1 cells, 200 nM, 16 hours), the inhibition at 0.2 µM was in the range of 50 to 80%.

For the compound `CC(=O)c1c(C)c2cnc(Nc3ccc(N4CCN(CC(=O)NCCOCCOCCC(=O)Nc5ccc(Cl)cc5C(=O)Nc5nc(C)c(C)s5)CC4)cn3)nc2n(C2CCCC2)c1=O` [CPD-142, 2-(3-(2-(2-(2-(4-(6-((6-Acetyl-8-cyclopentyl-5-methyl-7-oxo-7,8-dihydropyrido[2,3-d]pyrimidin-2-yl)amino)pyridin-3-yl)piperazin-1-yl)acetamido)ethoxy)ethoxy)propanamido)-5-chloro-N-(4,5-dimethylthiazol-2-yl)benzamide], the “CyclinD1 Degradation (200 nM)” value in the assay on cyclin D1 is given as “D (protein percentage degradation <30%)”. Further, the inhibition at 0.2 µM at CDK4 (Calu-1 cells, 200 nM, 16 hours) was less than 30%.

Regarding `CC(=O)c1c(C)c2cnc(Nc3ccc(N4CCN(CC(=O)NCCOCCOCCC(=O)Nc5cc(F)ccc5C(=O)Nc5nc(C)c(C)s5)CC4)cn3)nc2n(C2CCCC2)c1=O` [CPD-143, 2-(3-(2-(2-(2-(4-(6-((6-Acetyl-8-cyclopentyl-5-methyl-7-oxo-7,8-dihydropyrido[2,3-d]pyrimidin-2-yl)amino)pyridin-3-yl)piperazin-1-yl)acetamido)ethoxy)ethoxy)propanamido)-N-(4,5-dimethylthiazol-2-yl)-4-fluorobenzamide], the “CyclinD1 Degradation (200 nM)” value in the assay with cyclin D1 is listed as “A (protein percentage degradation >=80%)”. Besides, the inhibition at 0.2 µM on CDK4 (Calu-1 cells, 200 nM, 16 hours) is greater than 80%.

For `CC(=O)c1c(C)c2cnc(Nc3ccc(N4CCN(CC(=O)NCCOCCOCCC(=O)Nc5cc(Br)ccc5C(=O)Nc5nc(C)c(C)s5)CC4)cn3)nc2n(C2CCCC2)c1=O` [CPD-144, 2-(3-(2-(2-(2-(4-(6-((6-Acetyl-8-cyclopentyl-5-methyl-7-oxo-7,8-dihydropyrido[2,3-d]pyrimidin-2-yl)amino)pyridin-3-yl)piperazin-1-yl)acetamido)ethoxy)ethoxy)propanamido)-4-bromo-N-(4,5-dimethylthiazol-2-yl)benzamide], the “CyclinD1 Degradation (200 nM)” value in the assay with cyclin D1 is listed as “A (protein percentage degradation >=80%)”. Further, on CDK4 (Calu-1 cells, 200 nM, 16 hours), the inhibition at 0.2 µM is 50 to 80%.

Regarding `CC(=O)c1c(C)c2cnc(Nc3ccc(N4CCN(CC(=O)NCCOCCOCCC(=O)Nc5ccc(Br)cc5C(=O)Nc5nc(C)c(C)s5)CC4)cn3)nc2n(C2CCCC2)c1=O` [CPD-145, 2-(3-(2-(2-(2-(4-(6-((6-Acetyl-8-cyclopentyl-5-methyl-7-oxo-7,8-dihydropyrido[2,3-d]pyrimidin-2-yl)amino)pyridin-3-yl)piperazin-1-yl)acetamido)ethoxy)ethoxy)propanamido)-5-bromo-N-(4,5-dimethylthiazol-2-yl)benzamide], the “CyclinD1 Degradation (200 nM)” value with cyclin D1 is given as “D (protein percentage degradation <30%)”. The inhibition at 0.2 µM at CDK4 (Calu-1 cells, 200 nM, 16 hours) is less than 30%.

For `CC(=O)c1c(C)c2cnc(Nc3ccc(N4CCN(CC(=O)NCCC(=O)Nc5ccccc5C(=O)Nc5nc(C)c(C)s5)CC4)cn3)nc2n(C2CCCC2)c1=O` [CPD-146, 2-(3-(2-(4-(6-((6-Acetyl-8-cyclopentyl-5-methyl-7-oxo-7,8-dihydropyrido[2,3-d]pyrimidin-2-yl)amino)pyridin-3-yl)piperazin-1-yl)acetamido)propanamido)-N-(4,5-dimethylthiazol-2-yl)benzamide], in the assay with cyclin D1, the “CyclinD1 Degradation (200 nM)” value is given as “D (protein percentage degradation <30%)”. The inhibition at 0.2 µM on CDK4 (Calu-1, 16 h) is less than 30%.

Consider `CC(=O)c1c(C)c2cnc(Nc3ccc(N4CCN(CC(=O)NCCOCCC(=O)Nc5ccccc5C(=O)Nc5nc(C)c(C)s5)CC4)cn3)nc2n(C2CCCC2)c1=O` [CPD-147, 2-(3-(2-(2-(4-(6-((6-Acetyl-8-cyclopentyl-5-methyl-7-oxo-7,8-dihydropyrido[2,3-d]pyrimidin-2-yl)amino)pyridin-3-yl)piperazin-1-yl)acetamido)ethoxy)propanamido)-N-(4,5-dimethylthiazol-2-yl)benzamide], for which the “CyclinD1 Degradation (200 nM)” value with cyclin D1 is given as “D (protein percentage degradation <30%)”. Also, on CDK4 (Calu-1 cells, 200 nM, 16 hours), the inhibition at 0.2 µM is less than 30%.

Regarding `CCCCNc1ccc(NC(=O)CCOCCOCCNC(=O)CN2CCN(c3ccc(Nc4ncc5c(C)c(C(C)=O)c(=O)n(C6CCCC6)c5n4)nc3)CC2)c(C(=O)Nc2nc(C)c(C)s2)c1` [CPD-148, 2-(3-(2-(2-(2-(4-(6-((6-Acetyl-8-cyclopentyl-5-methyl-7-oxo-7,8-dihydropyrido[2,3-d]pyrimidin-2-yl)amino)pyridin-3-yl)piperazin-1-yl)acetamido)ethoxy)ethoxy)propanamido)-5-(butylamino)-N-(4,5-dimethylthiazol-2-yl)benzamide], the “CyclinD1 Degradation (200 nM)” value in the assay on cyclin D1 is “D (protein percentage degradation <30%)”. Further, the inhibition at 0.2 µM at CDK4 (Calu-1 cells, 200 nM, 16 hours) was less than 30%.

As to `CC(=O)c1c(C)c2cnc(Nc3ccc(N4CCN(CC(=O)NCCOCCOCCC(=O)Nc5cc(C)ccc5C(=O)Nc5nc(C)c(C)s5)CC4)cn3)nc2n(C2CCCC2)c1=O` [CPD-149, 2-(3-(2-(2-(2-(4-(6-((6-Acetyl-8-cyclopentyl-5-methyl-7-oxo-7,8-dihydropyrido[2,3-d]pyrimidin-2-yl)amino)pyridin-3-yl)piperazin-1-yl)acetamido)ethoxy)ethoxy)propanamido)-N-(4,5-dimethylthiazol-2-yl)-4-methylbenzamide], in the assay with cyclin D1, the “CyclinD1 Degradation (200 nM)” value is “A (protein percentage degradation >=80%)”. In addition, at CDK4 (Calu-1 cells, 200 nM, 16 hours), the inhibition at 0.2 µM was greater than 80%.

With `CNc1ccc(NC(=O)CCOCCOCCNC(=O)CN2CCN(c3ccc(Nc4ncc5c(C)c(C(C)=O)c(=O)n(C6CCCC6)c5n4)nc3)CC2)c(C(=O)Nc2nc(C)c(C)s2)c1` [CPD-150, 2-(3-(2-(2-(2-(4-(6-((6-Acetyl-8-cyclopentyl-5-methyl-7-oxo-7,8-dihydropyrido[2,3-d]pyrimidin-2-yl)amino)pyridin-3-yl)piperazin-1-yl)acetamido)ethoxy)ethoxy)propanamido)-N-(4,5-dimethylthiazol-2-yl)-5-(methylamino)benzamide], in the assay with cyclin D1, the “CyclinD1 Degradation (200 nM)” value is on record as “A (protein percentage degradation >=80%)”. In addition, the inhibition at 0.2 µM on CDK4 (Calu-1 cells, 200 nM, 16 hours) was in the range of 50 to 80%.
